One assay deals with human TLR8 (Homo sapiens (Human), UniProt Q9NR97). Nature of the assay: TLR8 inhibition reporter assay (HEK-Blue SEAP reporter, R848 stimulation).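 Further: SEAP driven by IFN-β minimal promoter with NF-κB and AP-1 sites, 22 h incubation, compounds 0.05 nM–50 µM, inhibition scaled between agonist plus DMSO and reference inhibitor wells.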 To be noted: read-out: TLR8 IC50; HEK-Blue cells overexpressing human TLR8, R848 15.9 μM, SEAP reporter. On the technique in general: A reporter such as luciferase makes a cellular process visible.
human TLR8, sequence (Q9NR97 27-1041): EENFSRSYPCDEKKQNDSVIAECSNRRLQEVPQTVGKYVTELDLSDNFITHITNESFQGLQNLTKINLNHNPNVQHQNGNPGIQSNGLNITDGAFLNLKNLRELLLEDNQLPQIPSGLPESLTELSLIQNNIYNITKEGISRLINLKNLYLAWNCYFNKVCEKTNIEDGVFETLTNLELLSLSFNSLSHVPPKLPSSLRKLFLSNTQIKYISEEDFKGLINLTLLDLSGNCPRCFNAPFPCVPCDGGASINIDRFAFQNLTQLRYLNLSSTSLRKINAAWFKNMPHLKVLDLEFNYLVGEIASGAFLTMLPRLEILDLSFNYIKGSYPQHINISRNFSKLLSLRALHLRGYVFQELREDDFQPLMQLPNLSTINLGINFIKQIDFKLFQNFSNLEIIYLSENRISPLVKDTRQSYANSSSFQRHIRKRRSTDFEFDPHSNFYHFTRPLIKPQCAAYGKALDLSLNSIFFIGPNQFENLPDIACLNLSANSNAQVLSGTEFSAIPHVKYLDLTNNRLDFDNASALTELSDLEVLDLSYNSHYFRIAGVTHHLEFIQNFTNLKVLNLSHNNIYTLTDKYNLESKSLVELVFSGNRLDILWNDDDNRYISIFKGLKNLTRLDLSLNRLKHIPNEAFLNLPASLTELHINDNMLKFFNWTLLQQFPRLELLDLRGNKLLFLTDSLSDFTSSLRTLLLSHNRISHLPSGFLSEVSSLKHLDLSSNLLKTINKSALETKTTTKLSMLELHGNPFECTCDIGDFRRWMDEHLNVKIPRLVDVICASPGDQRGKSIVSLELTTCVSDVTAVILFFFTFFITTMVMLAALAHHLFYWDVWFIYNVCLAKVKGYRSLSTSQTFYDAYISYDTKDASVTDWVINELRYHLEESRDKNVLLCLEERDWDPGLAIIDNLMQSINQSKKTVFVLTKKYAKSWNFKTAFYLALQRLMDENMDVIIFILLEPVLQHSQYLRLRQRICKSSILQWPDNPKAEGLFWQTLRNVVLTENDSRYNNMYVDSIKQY
For a further assay, the target named is human TLR7 (Homo sapiens (Human), UniProt Q9NYK1). Description: TLR7 inhibition reporter assay (HEK-Blue SEAP reporter, gardiquimod stimulation). It is filed as cell-based. To be noted: HEK-Blue cells overexpressing human TLR7, gardiquimod 7.5 μM.
human TLR7, sequence (Q9NYK1 27-1049): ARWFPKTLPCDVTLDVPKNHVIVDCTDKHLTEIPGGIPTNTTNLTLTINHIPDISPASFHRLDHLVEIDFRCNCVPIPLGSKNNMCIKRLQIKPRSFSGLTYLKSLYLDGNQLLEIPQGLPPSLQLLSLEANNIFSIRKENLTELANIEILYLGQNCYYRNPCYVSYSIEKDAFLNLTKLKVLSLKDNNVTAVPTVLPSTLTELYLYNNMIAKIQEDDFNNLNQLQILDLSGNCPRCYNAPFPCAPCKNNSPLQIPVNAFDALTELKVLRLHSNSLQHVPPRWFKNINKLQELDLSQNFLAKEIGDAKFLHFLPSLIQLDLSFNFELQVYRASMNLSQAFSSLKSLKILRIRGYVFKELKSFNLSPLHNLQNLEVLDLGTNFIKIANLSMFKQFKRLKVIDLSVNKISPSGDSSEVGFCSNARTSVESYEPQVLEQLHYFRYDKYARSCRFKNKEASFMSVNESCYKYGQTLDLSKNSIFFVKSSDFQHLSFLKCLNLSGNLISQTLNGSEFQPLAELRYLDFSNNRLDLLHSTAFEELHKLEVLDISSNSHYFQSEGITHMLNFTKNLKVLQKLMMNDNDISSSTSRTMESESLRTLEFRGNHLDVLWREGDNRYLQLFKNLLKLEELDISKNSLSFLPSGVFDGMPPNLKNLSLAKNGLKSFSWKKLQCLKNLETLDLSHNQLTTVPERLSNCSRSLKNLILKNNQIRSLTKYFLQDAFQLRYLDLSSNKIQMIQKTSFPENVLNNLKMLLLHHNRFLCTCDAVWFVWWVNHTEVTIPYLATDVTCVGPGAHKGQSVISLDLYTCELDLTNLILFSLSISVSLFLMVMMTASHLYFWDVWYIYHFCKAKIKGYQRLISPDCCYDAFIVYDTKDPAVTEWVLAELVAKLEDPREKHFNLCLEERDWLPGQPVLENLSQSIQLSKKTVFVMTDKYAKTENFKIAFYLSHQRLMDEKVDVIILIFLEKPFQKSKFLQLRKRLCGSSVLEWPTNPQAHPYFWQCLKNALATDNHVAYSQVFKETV
Another assay addresses human TLR9 (Homo sapiens (Human), UniProt Q9NR96). Description: TLR9 inhibition reporter assay (HEK-Blue SEAP reporter, ODN2006 stimulation).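 Further: SEAP reporter under IFN-β minimal promoter with five NF-κB and AP-1 sites, 22 h incubation, compounds 0.05 nM–50 µM, inhibition relative to agonist plus DMSO versus known inhibitor.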 To be noted: read-out: TLR9 IC50; HEK-Blue cells overexpressing human TLR9, ODN2006 5 nM, SEAP reporter.

For five compounds, IC50 results are on record in patent US11420973B2, “Amide substituted indole compounds useful as TLR inhibitors” (BRISTOL-MYERS SQUIBB COMPANY, priority 2017, dated 2022).

SMILES strings stand for the structures.

human TLR9, sequence (Q9NR96 26-1032): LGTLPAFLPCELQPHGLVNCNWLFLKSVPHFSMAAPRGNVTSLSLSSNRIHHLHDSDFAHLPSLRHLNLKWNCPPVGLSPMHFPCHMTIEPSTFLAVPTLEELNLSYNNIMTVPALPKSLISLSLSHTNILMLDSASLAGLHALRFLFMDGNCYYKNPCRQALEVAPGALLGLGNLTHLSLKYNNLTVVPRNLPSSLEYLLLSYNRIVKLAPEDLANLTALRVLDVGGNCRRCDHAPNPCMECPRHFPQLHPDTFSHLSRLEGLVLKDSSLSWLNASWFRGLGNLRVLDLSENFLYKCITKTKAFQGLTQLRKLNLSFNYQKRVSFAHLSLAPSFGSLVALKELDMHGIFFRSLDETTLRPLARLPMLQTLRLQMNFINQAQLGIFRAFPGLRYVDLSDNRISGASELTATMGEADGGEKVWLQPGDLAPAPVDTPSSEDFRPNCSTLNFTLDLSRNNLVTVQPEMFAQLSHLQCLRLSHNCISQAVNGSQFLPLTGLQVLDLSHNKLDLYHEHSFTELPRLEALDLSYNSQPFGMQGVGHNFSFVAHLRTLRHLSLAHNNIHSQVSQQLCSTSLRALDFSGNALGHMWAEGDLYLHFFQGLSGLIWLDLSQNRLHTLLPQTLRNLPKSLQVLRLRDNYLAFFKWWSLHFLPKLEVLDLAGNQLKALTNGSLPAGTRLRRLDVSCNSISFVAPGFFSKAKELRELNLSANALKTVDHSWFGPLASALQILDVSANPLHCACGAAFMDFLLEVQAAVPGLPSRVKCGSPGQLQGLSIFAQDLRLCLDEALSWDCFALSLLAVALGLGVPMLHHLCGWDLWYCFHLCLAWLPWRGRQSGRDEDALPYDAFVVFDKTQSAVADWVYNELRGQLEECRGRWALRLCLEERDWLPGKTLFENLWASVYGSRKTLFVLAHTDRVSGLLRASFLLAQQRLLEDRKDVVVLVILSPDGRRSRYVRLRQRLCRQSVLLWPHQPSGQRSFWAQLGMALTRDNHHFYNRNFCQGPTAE
Method for human TLR8: (§1) HEK-Blue™-cells (Invivogen) overexpressing human TLR7, TLR8 or TLR9 receptors were used for screening inhibitors of these receptors using an inducible SEAP (secreted embryonic alkaline phosphatase) reporter gene under the control of the IFN-β minimal promoter fused to five NF-κB and AP-1-binding sites. Briefly, cells are seeded into Greiner 384 well plates (15000 cells per well for TLR7, 20,000 for TLR8 and 25,000 for TLR9) and then treated with test compounds in DMSO to yield a final dose response concentration range of 0.05 nM-50 μM. After a 30 minute compound pre-treatment at room temperature, the cells are then stimulated with a TLR7 ligand (gardiquimod at a final concentration of 7.5 μM), TLR8 ligand (R848 at a final concentration of 15.9 μM) or TLR9 ligand (ODN2006 at a final concentration of 5 nM) to activate NF-κB and AP-1 which induce the production of SEAP. After a 22 hour incubation at 37° C., 5% CO2, SEAP levels are determined with the addition of HEK-Blue™ Detection reagent (Invivogen), a cell culture medium that allows for detection of SEAP, according to manufacturer's specifications.
Method for human TLR9: as §1

In general, IC50 refers to the concentration that gives 50% inhibition. Regarding `Cc1cc(-c2[nH]c3ccc(C(C)C(=O)N[C@@H]4CCCC[C@H]4N)cc3c2C(C)C)ccn1` (stereo partly drawn) [Example 216, N-((1R,2R)-2-aminocyclohexyl)-2-(3-isopropyl-2-(2-methylpyridin-4-yl)-1H-indol-5-yl)propanamide], the IC50 on human TLR8 is 0.159 µM; against human TLR7, 0.131 µM; on human TLR9, 1.06 µM.
For `Cc1cc(-c2[nH]c3ccc(C(C)C(=O)NC4CCC(N)CC4)cc3c2C(C)C)ccn1` (stereo not drawn) [Example 217, N-(4-aminocyclohexyl)-2-(3-isopropyl-2-(2-methylpyridin-4-yl)-1H-indol-5-yl)propanamide], the IC50 stood at 0.316 µM at human TLR8, 0.167 µM against human TLR7 and 0.999 µM on human TLR9.
`Cc1cc(-c2[nH]c3ccc(C(C)C(=O)NC4CCCC(N)C4)cc3c2C(C)C)ccn1` (stereo not drawn) [Example 218, N-(3-aminocyclohexyl)-2-(3-isopropyl-2-(2-methylpyridin-4-yl)-1H-indol-5-yl)propanamide]: the values for the IC50 on human TLR8, against human TLR7 and at human TLR9 were 1.08 µM, 0.803 µM and 1.4 µM, respectively.
On the same counts, the results for `Cc1cc(-c2[nH]c3ccc(C(C)C(=O)NC4CCCC(N)C4)cc3c2C(C)C)ccn1` (stereo not drawn) [Example 219, N-(3-aminocyclohexyl)-2-(3-isopropyl-2-(2-methylpyridin-4-yl)-1H-indol-5-yl)propanamide] are 0.182 µM, 0.256 µM and 1.75 µM.
Take `Cc1c(-c2[nH]c3ccc(C(=O)N(C)CCN(C)C)cc3c2C(C)C)cn(C)c(=O)c1Cl` [Example 222, 2-(5-chloro-1,4-dimethyl-6-oxo-1,6-dihydropyridin-3-yl)-N-(2-(dimethylamino)ethyl)-3-isopropyl-N-methyl-1H-indole-5-carboxamide]: the IC50 at human TLR8 amounted to 0.01 µM; against human TLR7 it was 0.022 µM; on human TLR9, 6.92 µM.
